# According to patent US9765075B2, “Substituted bridged urea analogs as sirtuin modulators” (GLAXOSMITHKLINE LLC, priority 2013, dated 2017):
# Numbering of substitutions follows the chain as printed. Counter-ions that a name gives are not always drawn.
# Tests used:
# Experiment in all cases: SIRT1 inhibition assay, OAcADPr mass spectrometry
# Format in all cases: biochemical
# [1] = target: T1, full-length hSIRT1 E230Q (Homo sapiens, UniProt Q96EB6, E230Q)
# T1 construct: His6 (C); made in house
# T1 sequence (Q96EB6 1-747 E230Q): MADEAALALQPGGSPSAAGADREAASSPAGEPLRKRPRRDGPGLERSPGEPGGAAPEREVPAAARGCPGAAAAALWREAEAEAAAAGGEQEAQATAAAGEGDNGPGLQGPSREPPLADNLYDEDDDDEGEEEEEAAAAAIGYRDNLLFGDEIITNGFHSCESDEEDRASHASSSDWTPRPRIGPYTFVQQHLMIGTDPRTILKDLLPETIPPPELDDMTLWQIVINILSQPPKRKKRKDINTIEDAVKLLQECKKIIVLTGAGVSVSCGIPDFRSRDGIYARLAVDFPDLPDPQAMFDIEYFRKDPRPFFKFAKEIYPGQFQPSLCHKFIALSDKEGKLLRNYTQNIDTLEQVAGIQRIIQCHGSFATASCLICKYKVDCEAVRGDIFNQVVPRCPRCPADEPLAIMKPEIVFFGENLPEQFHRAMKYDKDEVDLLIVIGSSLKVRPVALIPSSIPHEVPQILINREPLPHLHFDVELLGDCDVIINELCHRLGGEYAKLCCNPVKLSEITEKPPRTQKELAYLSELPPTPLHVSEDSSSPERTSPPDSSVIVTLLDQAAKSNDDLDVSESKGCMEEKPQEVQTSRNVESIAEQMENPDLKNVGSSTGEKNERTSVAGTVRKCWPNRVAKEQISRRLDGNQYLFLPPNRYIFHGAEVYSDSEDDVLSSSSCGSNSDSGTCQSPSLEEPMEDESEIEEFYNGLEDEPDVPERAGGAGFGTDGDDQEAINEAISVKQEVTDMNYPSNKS
# Method: (§1) SIRT1 activation and inhibition assays were run in reaction buffer with 0.05% BSA at 25° C. and analyzed using the OAcADPr assay. Enzyme and compound were pre-incubated for 20 minutes before addition of substrates.
# [2] = target: T2, full-length hSIRT1 E230A (Homo sapiens, UniProt Q96EB6, E230A)
# T2 construct: His6 (C); made in house
# T2 sequence (Q96EB6 1-747 E230A): T1 sequence (Q96EB6 1-747 E230Q) with Q230A
# Method: as §1
# [3] = target: T3, full-length hSIRT1 I227A (Homo sapiens, UniProt Q96EB6, I227A)
# T3 construct: The following point mutants of full-length hSIRT1 were generated; His6 (C); made in house
# T3 sequence (Q96EB6 1-747 I227A): T1 sequence (Q96EB6 1-747 E230Q) with I227A, Q230E
# Method: SIRT1 activation and inhibition assays were run in reaction buffer with 0.05% BSA at 25° C. and analyzed using the OAcADPr assay. Enzyme and compound were pre-incubated for 20 minutes before addition of substrates. […] In order to be sensitive to KM-modulating activators, substrate concentrations of approximately one-tenth their KM values were used (see Table 5).
structure (smiles),measurement,setting,value
"CCCC[C@H](NC(=O)[C@H](CC(C)C)NC(=O)[C@H](CCCCNC(=O)C(F)(F)F)NC(=O)[C@H](CCCCN)NC(=O)[C@H](Cc1c[nH]cn1)NC(=O)[C@H](CCCNC(=N)N)NC(C)=O)C(=O)N[C@@H](Cc1ccccc1)C(N)=O [TFA-p53 7-mer, Ac-RHK-K^TFA-L-Nle-F-NH2]",IC50,[1],0.86 ± 0.06 µM
same,IC50,[2],1.3 ± 0.4 µM
same,IC50,[3],0.94 ± 0.06 µM
